{"source": "patent US20250367166A1", "about": "“NEXT GENERATION DIPROVOCIMS THAT ACTIVATE THE INNATE AND ADAPTIVE IMMUNE RESPONSE” (The Scripps Research Institute, priority 2022, published 2025)", "key": {"[1]": {"tested_on": "SIINFEKL-loaded C57BL/6J splenocytes", "assay": "In vivo CTL assay after i.m. immunization with OVA plus diprovocim", "set-up": "species or system C57BL/6J mice", "conditions": "200 μg diprovocim + 100 μg OVA, 9 days after initial immunization and 9 days after boost", "method": "(§1) Mice were injected i.m. on day 0 and day 28 (FIG. 1) with 100 μg OVA alone, or 100 μg OVA mixed with vehicle (DMSO:Tween 80:saline=1:1:8), or mixed with 200 μg diprovocim-1 (TNF-α 1) or diprovocim-X (TNF-α 35) per mouse. EndoFit ovalbumin (OVA) with >98% purity minimum (SDS-PAGE) and endotoxin levels <1 EU/mg was purchased from Invivogen.\nOn day 9 and day 37 (FIG. 1), naive C57BL/6J mice were killed, and splenocytes were collected. […] The unpulsed and peptide-pulsed cells were labeled, respectively, with […] (“low”) or […] (“high”) CellTrace Violet (Invitrogen) in serum-free medium for 20 min. Equal numbers (2×10^6) of CellTrace Violet^high (OVA pulsed) and CellTrace Violet^low (unpulsed) cells were mixed together and injected intravenously into the immunized mice.\nAfter 48 h, blood from treated mice was collected and subjected to flow cytometry analysis. The numbers of remaining live CellTrace Violet^high and CellTrace Violet^low cells were determined and used to calculate the percentage of OVA peptide-pulsed target cells killed. Specific killing was defined as the ratio=CellTrace Violet^low cells/CellTrace Violet^high cells. The percentage of target cell lysis=[1−unimmunized ratio/immunized ratio]×100."}, "[2]": {"tested_on": "OVA-specific IgG, IgG1, or IgG2b", "assay": "Antibody response assay: serum OVA-specific IgG, IgG1, IgG2b by ELISA", "format": "in vivo, C57BL/6J mice", "conditions": "14 days after a single immunization, with OVA", "method": "as §1\nOn day 14 (FIG. 1), serum titers of OVA-specific IgG, IgG1, or IgG2b (SouthernBiotech) were measured by ELISA. Nunc MaxiSorp flat-bottom 96-well microplates (Thermo Fisher Scientific) were coated with 5 μg/mL soluble OVA (Invivogen) and incubated at 4° C. overnight (ca. 18 h). Plates were washed four times with washing buffer (0.05% [vol/vol] Tween-20 in PBS), then blocked with 1% (vol/vol) BSA in PBS for 1 h at room temperature. Serum samples diluted in 1% (vol/vol) BSA were added to the prepared plates and incubated for 2 h. The plates were washed eight times with washing buffer and then incubated with HRP-conjugated goat anti-mouse IgG, IgG1, or IgG2b for 1 h at room temperature. Plates were washed eight times with washing buffer, then developed with SureBlue TMB Microwell Peroxidase Substrate and TMB Stop Solution (KPL). Absorbance was measured at 450 nm on a Synergy Neo2 Plate Reader (BioTek)."}, "B16-OVA melanoma [3]": {"tested_on": "B16-OVA melanoma", "assay": "Tumor growth assay, B16-OVA melanoma in immunized mice", "format": "in vivo, C57BL/6J mice", "conditions": "inoculation 10 days after the second challenge; anti-mPD-L1 i.p.", "method": "as §1\nB16-OVA cells (B16F10 melanoma cells stably expressing chicken ovalbumin) were grown in DMEM containing 10% vol/vol FBS. On day 38 (FIG. 1), a total of 2×10^5 B16-OVA cells in 100 μL PBS were injected s.c. into the right flank of 17 week-old male C57BL/6J mice to establish tumors. On days 41, 44, and 47, the mice were injected i.p. with 200 μg checkpoint inhibitor (anti-mPD-L1, BioXcell) in 100 μL saline. Tumors were measured with a digital caliper (Fisher) and the tumor sizes were calculated using the following formula: volume=0.5×length×width^2. Mice were sacrificed when the tumor length or width reached 2 cm."}, "[4]": {"assay": "In vivo adjuvant activity, i.m. co-administration with ovalbumin", "conditions": "for adjuvant activity in mice (CD4- and CD-8-dependent responses): with OVA, i.m.", "method": "C57BL/6J mice were purchased from The Jackson Laboratory. All study procedures using mice were approved by the Institutional Animal Care and Use Committee (IACUC) of the University of Texas Southwestern Medical Center and were conducted in accordance with institutionally approved protocols and guidelines for animal care and use. All the mice were maintained at the University of Texas Southwestern Medical Center in accordance with institutionally approved protocols.\nEndoFit ovalbumin (OVA) with >98% purity minimum (SDS-PAGE) and endotoxin levels <1 EU/mg was purchased from Invivogen."}, "TLR1/TLR2 [5]": {"target": "T1, TLR1/TLR2 (Homo sapiens, UniProt O60603+Q15399)", "T1 sequence (Q15399 25-786)": "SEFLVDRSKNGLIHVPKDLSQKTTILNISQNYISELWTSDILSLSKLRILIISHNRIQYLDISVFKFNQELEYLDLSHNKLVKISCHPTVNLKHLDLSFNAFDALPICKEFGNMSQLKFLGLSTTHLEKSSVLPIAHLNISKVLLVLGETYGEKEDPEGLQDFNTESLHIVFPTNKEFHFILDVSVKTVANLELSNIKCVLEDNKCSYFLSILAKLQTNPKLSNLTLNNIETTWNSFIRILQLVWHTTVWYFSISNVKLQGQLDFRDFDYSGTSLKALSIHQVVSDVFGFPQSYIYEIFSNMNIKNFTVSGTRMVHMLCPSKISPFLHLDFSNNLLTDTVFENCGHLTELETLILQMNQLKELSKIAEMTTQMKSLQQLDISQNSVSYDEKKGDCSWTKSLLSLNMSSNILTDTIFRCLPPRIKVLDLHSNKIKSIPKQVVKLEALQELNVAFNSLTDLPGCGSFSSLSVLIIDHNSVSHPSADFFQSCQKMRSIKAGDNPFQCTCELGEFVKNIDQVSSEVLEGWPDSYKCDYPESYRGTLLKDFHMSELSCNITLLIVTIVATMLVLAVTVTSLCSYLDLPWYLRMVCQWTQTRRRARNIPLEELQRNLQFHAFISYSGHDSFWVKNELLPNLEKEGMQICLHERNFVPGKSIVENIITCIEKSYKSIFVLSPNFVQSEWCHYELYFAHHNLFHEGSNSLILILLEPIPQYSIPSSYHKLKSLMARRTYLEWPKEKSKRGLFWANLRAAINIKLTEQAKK", "T1 sequence (O60603 21-784)": "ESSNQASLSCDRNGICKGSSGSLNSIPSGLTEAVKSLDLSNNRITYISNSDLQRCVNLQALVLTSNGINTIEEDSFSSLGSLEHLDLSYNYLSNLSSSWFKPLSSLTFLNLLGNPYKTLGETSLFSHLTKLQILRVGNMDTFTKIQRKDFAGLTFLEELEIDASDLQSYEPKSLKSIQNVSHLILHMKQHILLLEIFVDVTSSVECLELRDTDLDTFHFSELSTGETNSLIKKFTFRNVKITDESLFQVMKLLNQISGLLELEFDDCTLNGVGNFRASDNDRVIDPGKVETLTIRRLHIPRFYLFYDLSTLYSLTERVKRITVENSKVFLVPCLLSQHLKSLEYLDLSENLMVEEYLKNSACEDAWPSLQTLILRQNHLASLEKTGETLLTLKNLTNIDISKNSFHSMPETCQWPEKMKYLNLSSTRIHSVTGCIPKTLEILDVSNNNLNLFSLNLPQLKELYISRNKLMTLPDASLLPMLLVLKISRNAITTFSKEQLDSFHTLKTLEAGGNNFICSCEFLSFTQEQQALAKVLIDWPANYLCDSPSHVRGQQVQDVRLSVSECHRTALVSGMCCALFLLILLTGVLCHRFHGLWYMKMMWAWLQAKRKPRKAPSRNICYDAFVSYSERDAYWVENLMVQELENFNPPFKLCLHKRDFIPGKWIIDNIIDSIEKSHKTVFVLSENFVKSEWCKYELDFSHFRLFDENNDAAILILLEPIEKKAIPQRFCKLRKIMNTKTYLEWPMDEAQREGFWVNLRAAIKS", "conditions": "table of b113, in parentheses; cited from earlier work"}, "TLR1/TLR2 [6]": {"target": "T2, TLR1/TLR2 (Mus musculus, UniProt Q9EPQ1+Q9QUN7)", "T2 sequence (Q9EPQ1 26-795)": "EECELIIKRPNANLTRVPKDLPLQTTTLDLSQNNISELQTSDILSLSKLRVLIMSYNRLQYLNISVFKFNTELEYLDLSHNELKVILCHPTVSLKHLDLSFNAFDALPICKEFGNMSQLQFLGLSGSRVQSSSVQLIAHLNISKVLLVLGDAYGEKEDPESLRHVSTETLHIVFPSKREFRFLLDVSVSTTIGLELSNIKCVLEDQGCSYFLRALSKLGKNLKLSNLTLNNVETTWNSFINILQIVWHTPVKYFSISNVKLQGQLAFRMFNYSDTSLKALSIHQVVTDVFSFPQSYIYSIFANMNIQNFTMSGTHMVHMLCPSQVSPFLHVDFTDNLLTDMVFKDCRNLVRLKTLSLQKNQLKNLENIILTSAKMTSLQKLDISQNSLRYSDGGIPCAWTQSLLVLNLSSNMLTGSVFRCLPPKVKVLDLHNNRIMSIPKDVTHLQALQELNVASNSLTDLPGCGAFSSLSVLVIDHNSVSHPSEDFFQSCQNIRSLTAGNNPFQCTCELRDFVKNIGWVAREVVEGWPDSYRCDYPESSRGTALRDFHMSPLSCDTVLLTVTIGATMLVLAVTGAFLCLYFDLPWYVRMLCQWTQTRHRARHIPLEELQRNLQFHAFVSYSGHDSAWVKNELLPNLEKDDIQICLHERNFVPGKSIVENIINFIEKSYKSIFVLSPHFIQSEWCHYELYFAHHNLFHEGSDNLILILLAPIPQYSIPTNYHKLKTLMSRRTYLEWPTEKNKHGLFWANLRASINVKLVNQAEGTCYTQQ", "T2 sequence (Q9QUN7 25-784)": "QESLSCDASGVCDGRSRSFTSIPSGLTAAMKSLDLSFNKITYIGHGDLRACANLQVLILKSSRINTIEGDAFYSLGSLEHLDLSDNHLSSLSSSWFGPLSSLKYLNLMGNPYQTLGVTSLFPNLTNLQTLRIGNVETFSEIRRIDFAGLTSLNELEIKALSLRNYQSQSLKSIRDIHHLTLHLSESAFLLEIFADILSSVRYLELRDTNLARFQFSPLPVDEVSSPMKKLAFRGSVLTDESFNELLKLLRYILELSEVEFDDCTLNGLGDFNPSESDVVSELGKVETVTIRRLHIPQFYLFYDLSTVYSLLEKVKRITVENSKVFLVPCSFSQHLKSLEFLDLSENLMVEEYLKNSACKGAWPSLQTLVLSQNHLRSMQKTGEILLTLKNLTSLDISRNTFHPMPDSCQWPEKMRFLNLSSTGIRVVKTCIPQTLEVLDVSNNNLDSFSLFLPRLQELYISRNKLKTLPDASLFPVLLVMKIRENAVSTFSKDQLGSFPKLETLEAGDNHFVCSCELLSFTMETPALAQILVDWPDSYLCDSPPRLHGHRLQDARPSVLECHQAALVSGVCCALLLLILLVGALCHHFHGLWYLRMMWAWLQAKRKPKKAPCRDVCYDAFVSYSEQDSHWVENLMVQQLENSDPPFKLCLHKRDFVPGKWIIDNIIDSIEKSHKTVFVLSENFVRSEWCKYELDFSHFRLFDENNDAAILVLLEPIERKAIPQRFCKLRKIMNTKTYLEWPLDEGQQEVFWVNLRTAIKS", "conditions": "cited from earlier work"}, "B16-OVA melanoma [7]": {"tested_on": "B16-OVA melanoma", "conditions": "background; diprovocim/OVA i.m.; cited from earlier work"}, "[8]": {"conditions": "background; cited from earlier work"}, "TLR1/TLR2 [9]": {"target": "T1, TLR1/TLR2", "assay": "TNF-α release from PMA-differentiated human THP-1 cells (ELISA)"}, "TLR1/TLR2 [10]": {"target": "T2, TLR1/TLR2", "assay": "TNF-α release from thioglycolate-elicited mouse peritoneal macrophages (ELISA)", "procedure": "Thioglycolate-elicited macrophages were recovered 4 days after i.p. injection of 2 mL BBL thioglycolate medium, brewer modified (4%; BD Biosciences) by peritoneal lavage with 5 mL phosphate buffered saline (PBS). […] Cells were seeded onto 96-well plates at 1×10^3 cells per well and treated with systematically varied concentrations of the candidate compounds (dissolved in DMSO, and final assay DMSO concentrations (0.5%) were kept constant in all experiments) for 4 h. Ultra-pure LPS (dissolved in H2O, Enzo Life Sciences) was assessed alongside the compounds as a positive control and DMSO treated controls. […] Mouse TNF-α in the supernatants was measured by ELISA kits according to the manufacturer's instructions (eBioscience). EC50's were calculated by Graphpad Prism. All data is mean of duplicates and SD is within ±10% of mean. Mouse cells were from wild type C57BL/6J mice."}}, "note": "Where two headings read alike, the source gives them in different places.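 Wherever efficacy relative to that of diprovocim-1 in human THP-1 cells is given: cells exposed to graded compound concentrations for 4 h, TNF-α quantified in supernatant, LPS as positive and DMSO as negative control, values are duplicate means.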", "data": [{"molecule": "O=C(N[C@H]1C[C@@H]1c1ccccc1)[C@@H]1CN(C(=O)c2ccc(C(=O)N3C[C@@H](C(=O)N[C@H]4C[C@@H]4c4ccccc4)[C@H](C(=O)N[C@H]4C[C@@H]4c4ccccc4)C3)cc2)C[C@H]1C(=O)N[C@H]1C[C@@H]1c1ccccc1", "note": "[Compound 1, reference compound]", "values": [{"measurement": "in vivo cytotoxicity against OVA peptide-loaded C57BL/6J splenocytes (CTL, FIG. 2A)", "setting": "[1]", "result": "induced strong in vivo cytotoxicity"}, {"measurement": "OVA-specific circulating antibodies of different subtypes by ELISA (FIGS. 3A-3C)", "setting": "[2]", "result": "strong responses"}, {"measurement": "Resistance to B16-OVA melanoma (FIG. 2B)", "setting": "B16-OVA melanoma [3]", "result": "notably enhanced"}, {"measurement": "overt toxicity when used as an adjuvant", "setting": "[4]; compared with LPS administration", "result": "did not display the overt toxicity"}, {"measurement": "adjuvant activity in mice (CD4- and CD-8-dependent responses)", "setting": "[4]", "result": "comparable adjuvant activity"}, {"measurement": "Efficacy (magnitude) of response versus diprovocim-1 (100%), THP-1", "setting": "TLR1/TLR2 [5]", "result": 100, "unit": "%"}, {"measurement": "Efficacy (magnitude) of response versus diprovocim-1 (100%), mouse macrophages", "setting": "TLR1/TLR2 [6]; table of b113, in parentheses", "result": 100, "unit": "%"}, {"measurement": "effect of combination with anti-PD-L1 on B16-OVA tumors in mice", "setting": "B16-OVA melanoma [7]", "result": "eradicated tumors"}, {"measurement": "adjuvant activity in mice when co-administered i.m. with ovalbumin", "setting": "[8]", "result": "effective adjuvant"}]}, {"molecule": "O=C(O)[C@@H]1CN(C(=O)c2ccc(C(=O)N3C[C@@H](C(=O)N[C@H]4C[C@@H]4c4ccccc4)[C@H](C(=O)N[C@H]4C[C@@H]4c4ccccc4)C3)cc2)C[C@H]1C(=O)N[C@H]1C[C@@H]1c1ccccc1", "note": "[Compound 2]", "values": [{"measurement": "Efficacy (magnitude) of response versus diprovocim-1 (100%), THP-1", "setting": "TLR1/TLR2 [5]", "result": 110, "unit": "%"}, {"measurement": "EC50", "setting": "TLR1/TLR2 [6]; table of b113, prior observation ref 15, read-out: EC50 (nM) (mouse): EC50 TNF-α release from mouse macrophages", "result": "> 5000", "unit": "nM"}]}, {"molecule": "CC(C)(C)OC(=O)NCC(=O)OCCCCCCCCCCCCNC(=O)[C@@H]1CN(C(=O)c2ccc(C(=O)N3C[C@@H](C(=O)N[C@H]4C[C@@H]4c4ccccc4)[C@H](C(=O)N[C@H]4C[C@@H]4c4ccccc4)C3)cc2)C[C@H]1C(=O)N[C@H]1C[C@@H]1c1ccccc1", "note": "[Compound 35, 12-((3S,4S)-1-(4-((3S,4S)-3,4-Bis(((1S,2R)-2-phenylcyclopropyl)carbamoyl)-pyrrolidine-1-carbonyl)benzoyl)-4-(((1S,2R)-2-phenyl-cyclopropyl)carbamoyl)-pyrrolidine-3-carboxamido)-dodecyl-2-((tert-butoxycarbonyl)-amino)acetate]", "values": [{"measurement": "in vivo cytotoxicity against OVA peptide-loaded C57BL/6J splenocytes (CTL, FIG. 2A)", "setting": "[1]", "result": "induced strong in vivo cytotoxicity"}, {"measurement": "OVA-specific circulating antibodies of different subtypes by ELISA (FIGS. 3A-3C)", "setting": "[2]", "result": "strong responses"}, {"measurement": "Resistance to B16-OVA melanoma (FIG. 2B)", "setting": "B16-OVA melanoma [3]", "result": "notably enhanced"}, {"measurement": "adjuvant activity in mice (CD4- and CD-8-dependent responses)", "setting": "[4]", "result": "matching or surpassing the activity of diprovocim-1"}, {"measurement": "efficacy relative to that of diprovocim-1 in human THP-1 cells", "setting": "TLR1/TLR2 [9]", "result": 100, "unit": "%"}, {"measurement": "Efficacy (magnitude) of response versus diprovocim-1 (100%), THP-1", "setting": "TLR1/TLR2 [9]; Table 3, in parentheses", "result": 100, "unit": "%"}, {"measurement": "Efficacy (magnitude) of response versus diprovocim-1 (100%), THP-1", "setting": "TLR1/TLR2 [9]; Table 5, in parentheses", "result": 100, "unit": "%"}, {"measurement": "Efficacy (magnitude) of response versus diprovocim-1 (100%), THP-1", "setting": "TLR1/TLR2 [9]; Table 6, in parentheses", "result": 100, "unit": "%"}, {"measurement": "EC50", "setting": "TLR1/TLR2 [9]; read-out: EC50 (nM) (THP-1): EC50 TNF-α release from human THP-1 cells, Table 3", "result": 0.14, "unit": "nM"}, {"measurement": "EC50", "setting": "TLR1/TLR2 [9]; read-out: EC50 (nM) (THP-1): EC50 TNF-α release from human THP-1 cells, Table 5", "result": 0.14, "unit": "nM"}, {"measurement": "EC50", "setting": "TLR1/TLR2 [9]; read-out: EC50 (nM) (THP-1): EC50 TNF-α release from human THP-1 cells, Table 6", "result": 0.14, "unit": "nM"}, {"measurement": "EC50", "setting": "TLR1/TLR2 [9]; read-out: EC50 in human THP-1 cells", "result": 0.14, "unit": "nM"}, {"measurement": "efficacy relative to that of diprovocim-1 in mouse macrophages", "setting": "TLR1/TLR2 [10]", "result": 550, "unit": "%"}, {"measurement": "fold more active than diprovocim-1 in mouse macrophages", "setting": "TLR1/TLR2 [10]", "result": 2, "unit": "fold"}, {"measurement": "Efficacy (magnitude) of response versus diprovocim-1 (100%), mouse macrophages", "setting": "TLR1/TLR2 [10]; Table 3, in parentheses", "result": 550, "unit": "%"}, {"measurement": "Efficacy (magnitude) of response versus diprovocim-1 (100%), mouse macrophages", "setting": "TLR1/TLR2 [10]; Table 5, in parentheses", "result": 550, "unit": "%"}, {"measurement": "Efficacy (magnitude) of response versus diprovocim-1 (100%), mouse macrophages", "setting": "TLR1/TLR2 [10]; Table 6, in parentheses", "result": 550, "unit": "%"}, {"measurement": "EC50", "setting": "TLR1/TLR2 [10]; read-out: EC50 (nM) (mouse): EC50 TNF-α release from mouse macrophages, Table 3", "result": 0.75, "unit": "nM"}, {"measurement": "EC50", "setting": "TLR1/TLR2 [10]; read-out: EC50 (nM) (mouse): EC50 TNF-α release from mouse macrophages, Table 5", "result": 0.75, "unit": "nM"}, {"measurement": "EC50", "setting": "TLR1/TLR2 [10]; read-out: EC50 (nM) (mouse): EC50 TNF-α release from mouse macrophages, Table 6", "result": 0.75, "unit": "nM"}, {"measurement": "EC50", "setting": "TLR1/TLR2 [10]; read-out: EC50 in mouse macrophages", "result": 0.75, "unit": "nM"}]}]}
